Reference: US5270302A, “Derivatives of tetrapeptides as CCK agonists” (priority 1991, dated 1993)
pIC50: −log10 of the molar value. Where a name gives a salt, the structure may show the parent alone. Read-outs that look alike come from different tables or passages of the source. *1 amine or outer side, *2 acyl side, *3 side chain or, on linkers, in order; H or OH if unused. Where a SMILES comes first, the peptide text is derived from it. Side-chain parts run from the residue outwards. [ ]: non-standard residue; d: D form. The star is where a group is joined. ξ: configuration not given here. NMeW = CN[C@@H](Cc1c[nH]c2ccccc12)C(=O)O; ξαMeW = CC(N)(Cc1c[nH]c2ccccc12)C(=O)O; Isobutyloxycarbonyl = CC(C)COC(=O)*; X12 = O=C(C=Cc1ccc(C(F)(F)F)cc1)*; NMeF = CN[C@@H](Cc1ccccc1)C(=O)O; NMeD = CN[C@@H](CC(=O)O)C(=O)O; NH(2-Me-phenyl) = Cc1ccccc1N*; X5 = O=C(CCc1ccc(O)c(I)c1)*; Boc = CC(C)(C)OC(=O)*; X3 = O=C(C=Cc1cccs1)*; CO = O=C([*:1])[*:2]; Tfa = O=C(C(F)(F)F)*; Bz = O=C(c1ccccc1)*; NHtBu = CC(C)(C)N*; Ms = CS(=O)(=O)*; Moc = COC(=O)*

How the values were obtained:
Type-B CCK receptor = molecular target: T1, Type-B CCK receptor (Cavia porcellus, UniProt H0VZC5); assay: Radioligand binding of [125I]BH-CCK-8 in guinea pig cerebral cortical membrane preparations; details: for IC50: guinea pig cortical membranes, 30° C., 150 minutes
T1 construct: Cortical and pancreatic membranes were prepared as described; from tissue; host or cells: guinea pig cerebral cortex membranes
T1 sequence (H0VZC5 1-426): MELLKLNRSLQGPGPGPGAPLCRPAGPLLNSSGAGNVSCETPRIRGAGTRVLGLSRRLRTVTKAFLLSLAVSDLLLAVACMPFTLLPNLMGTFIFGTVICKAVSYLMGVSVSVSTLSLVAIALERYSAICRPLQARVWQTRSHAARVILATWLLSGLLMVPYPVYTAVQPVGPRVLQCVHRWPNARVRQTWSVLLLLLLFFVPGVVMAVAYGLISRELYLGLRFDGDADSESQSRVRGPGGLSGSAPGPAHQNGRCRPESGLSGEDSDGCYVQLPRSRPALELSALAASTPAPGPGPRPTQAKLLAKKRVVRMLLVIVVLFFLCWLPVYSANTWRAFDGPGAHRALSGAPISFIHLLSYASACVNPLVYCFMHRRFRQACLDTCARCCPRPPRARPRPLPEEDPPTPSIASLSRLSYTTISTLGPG
Summary of the method: (§1)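 Membranes came from male guinea pig pancreas (type A) or cerebral cortex (type B) and were resuspended in pH 7.4 HEPES-EGTA-salt buffer containing bestatin and phosphoramidon. Test compounds competed with [125I]BH-CCK-8 in 0.1% BSA: cortex 150 min at 30 °C, pancreas 150 min at 37 °C. Reactions ended by filtration; IC50 from Hill analysis.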

Type-A CCK receptor = molecular target: T2, Type-A CCK receptor (Cavia porcellus, UniProt Q63931); assay: Radioligand binding of [125I]BH-CCK-8 in guinea pig pancreatic membrane preparations; details: for IC50: guinea pig pancreatic membranes, 37° C., 150 min
T2 construct: Cortical and pancreatic membranes were prepared as described; from tissue; host or cells: guinea pig pancreas membranes
T2 sequence (Q63931 1-430): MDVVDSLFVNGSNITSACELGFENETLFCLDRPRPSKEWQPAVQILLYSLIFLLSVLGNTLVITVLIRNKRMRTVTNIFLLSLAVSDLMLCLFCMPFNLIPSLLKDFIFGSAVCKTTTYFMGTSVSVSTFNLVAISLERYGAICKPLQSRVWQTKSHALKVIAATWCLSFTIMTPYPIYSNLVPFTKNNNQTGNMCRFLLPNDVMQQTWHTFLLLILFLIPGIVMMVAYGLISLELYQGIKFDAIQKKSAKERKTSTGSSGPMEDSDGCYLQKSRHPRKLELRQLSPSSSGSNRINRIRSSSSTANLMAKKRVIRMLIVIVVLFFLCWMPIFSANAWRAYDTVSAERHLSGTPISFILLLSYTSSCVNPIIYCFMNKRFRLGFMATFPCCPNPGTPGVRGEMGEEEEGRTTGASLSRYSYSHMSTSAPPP
Summary of the method: as §1

[1] = IC50 (nM) 125I-BH-CCK-8 Type-B receptor
[2] = IC50 (nM) 125I-BH-CCK-8 Type-A receptor
[3] = read-out: IC50 (nM) 125I-BH-CCK-8 Type-B receptor
[4] = read-out: IC50 (nM) 125I-BH-CCK-8 Type-A receptor

IC50 (Type-B CCK receptor; [3]) | IC50 (Type-A CCK receptor; [4]) | Compound | IC50 (Type-B CCK receptor; [1]) | IC50 (Type-A CCK receptor; [2]) | other results
 |  | Cc1ccccc1NC(=O)NCCCC[C@H](NC(=O)[C@H](Cc1c[nH]c2ccccc12)NC(=O)C(F)(F)F)C(=O)N(C)[C@@H](CC(=O)O)C(=O)N[C@@H](Cc1ccccc1)C(N)=O [Example 88A, trifluoroacetyl-Trp-Lys(ε-N-(2-methylphenyl)aminocarbonyl)-(NMe)Asp-PheNH2] (Tfa-WK([CO-NH(2-Me-phenyl)])[NMeD]F-NH2) | > 10000 nM | 4.4 nM | 
10000 nM | 68 nM | Cc1ccccc1NC(=O)NCCCC[C@H](NC(=O)CCc1c[nH]c2ccccc12)C(=O)N(C)[C@@H](CC(=O)O)C(=O)N[C@@H](Cc1ccccc1)C(N)=O [Example 65, 3-(3-Indolyl)propionyl-Lys(ε-N-(2-methylphenyl)aminocarbonyl)-(NMe)Asp-PheNH2] |  |  | 
 |  | Cc1ccccc1NC(=O)NCCCC[C@H](NC(=O)[C@H](Cc1c[nH]c2ccccc12)NC(=O)c1ccccc1)C(=O)N(C)[C@@H](CC(=O)O)C(=O)N[C@@H](Cc1ccccc1)C(N)=O [Example 90, Benzoyl-Trp-Lys(ε-N-(2-methylphenyl)aminocarbonyl)-(NMe)Asp-PheNH2] (Bz-WK([CO-NH(2-Me-phenyl)])[NMeD]F-NH2) | 5100 nM | 2.7 nM | 
 |  | Cc1ccccc1NC(=O)NCCCC[C@H](NC(=O)C(C)(N)Cc1c[nH]c2ccccc12)C(=O)N(C)[C@@H](CC(=O)O)C(=O)N[C@@H](Cc1ccccc1)C(N)=O (some centres unmarked) [Example 123] (H-[ξαMeW]K([CO-NH(2-Me-phenyl)])[NMeD]F-NH2) | > 10000 nM | 5.9 nM | 
 |  | Cc1ccccc1NC(=O)NCCCC[C@H](NC(=O)[C@H](Cc1c[nH]c2ccccc12)NC(=O)OCC(C)C)C(=O)N[C@@H](CC(=O)O)C(=O)N(C)[C@@H](Cc1ccccc1)C(N)=O [Example 77, Isobutyloxycarbonyl-Trp-Lys(ε-N-(2-methylphenyl)aminocarbonyl)-Asp-(NMe)PheNH2] (Isobutyloxycarbonyl-WK([CO-NH(2-Me-phenyl)])D[NMeF]-NH2) | 6500 nM | 2.3 nM | 
 |  | Cc1ccccc1NC(=O)NCCCC[C@H](NC(=O)C(C)(Cc1c[nH]c2ccccc12)NC(=O)OC(C)(C)C)C(=O)N[C@@H](CC(=O)O)C(=O)N[C@@H](Cc1ccccc1)C(N)=O (stereo partly drawn) [Example 96, t-BOC-D,L-(α-methyl)Trp-Lys(ε-N-(2-methylphenyl)aminocarbonyl)-Asp-PheNH2] (Boc-[ξαMeW]K([CO-NH(2-Me-phenyl)])DF-NH2) | 9300 nM | 16 nM | 
640 nM | 10 nM | Cc1ccccc1NC(=O)NCCCC[C@H](NC(=O)C(C#N)Cc1c[nH]c2ccccc12)C(=O)N[C@@H](CC(=O)O)C(=O)N[C@@H](Cc1ccccc1)C(N)=O (some centres unmarked) [Example 64, (2-Cyano-3-(3-indolyl)propionyl)-Lys(ε-N-(2-methylphenyl)aminocarbonyl)-Asp-PheNH2] |  |  | 
 |  | Cc1ccccc1NC(=O)NCCCC[C@H](NC(=O)[C@H](Cc1c[nH]c2ccccc12)NC(=O)NC(C)(C)C)C(=O)N[C@@H](CC(=O)O)C(=O)N(C)[C@@H](Cc1ccccc1)C(N)=O [Example 82, t-Butylaminocarbonyl-Trp-Lys(ε-N-(2-methylphenyl)aminocarbonyl)-Asp(NMe)PheNH2] ({NHtBu-CO}-WK([CO-NH(2-Me-phenyl)])D[NMeF]-NH2) |  |  | pIC50 (Type-B CCK receptor): 5.36; pIC50 (Type-A CCK receptor): 8.31
6600 nM | 6.1 nM | Cc1ccccc1NC(=O)NCCCC[C@H](NC(=O)CCc1c[nH]c2ccccc12)C(=O)N(C)[C@@H](CC(=O)O)C(=O)N[C@@H](Cc1cccc2ccccc12)C(N)=O [Example 103, (3-(3-Indolyl)propionyl)-Lys(ε-N-(2-methylphenyl)aminocarbonyl)-(NMe)Asp-α-NalNH2] |  |  | 
8100 nM | 35 nM | CN(C(=O)[C@H](CCCCNC(=O)C=Cc1cccs1)NC(=O)[C@H](Cc1c[nH]c2ccccc12)NC(=O)OC(C)(C)C)[C@@H](CC(=O)O)C(=O)N[C@@H](Cc1ccccc1)C(N)=O [Example 66, t-BOC-Trp-Lys-(ε-N-3-(2-thienyl)acrylyl)-(NMe)Asp-PheNH2] (Boc-WK(X3)[NMeD]F-NH2) |  |  | 
 |  | Cc1ccccc1NC(=O)NCCCC[C@H](NC(=O)C1Cc2c[nH]c3cccc(c23)CC(=O)N1)C(=O)N[C@@H](CC(=O)O)C(=O)N(C)[C@@H](Cc1ccccc1)C(N)=O (some centres unmarked) [Example 112, Ctp-Lys(ε-N-(2-methylphenyl)aminocarbonyl)-Asp-(NMe)PheNH2] | 900 nM | 6.3 nM | 
4100 nM | 200 nM | Cc1ccccc1NC(=O)NCCCC[C@H](NC(=O)C(C)Cc1c[nH]c2ccccc12)C(=O)N[C@@H](CC(=O)O)C(=O)N(C)[C@@H](Cc1ccccc1)C(N)=O (some centres unmarked) [Example 104, (2-Methyl-3-(3-indolyl)propionyl)-Lys(ε-N-(2-methylphenyl)aminocarbonyl)-Asp-(NMe)PheNH2] |  |  | 
> 10000 nM | 47 nM | Cc1ccccc1NC(=O)NCCCC[C@H](NC(=O)[C@H](Cc1c[nH]c2ccccc12)NS(C)(=O)=O)C(=O)N[C@@H](CC(=O)O)C(=O)N(C)[C@@H](Cc1ccccc1)C(N)=O [Example 95, Methylsufonamyl-Trp-Lys(ε-N-(2-methylphenyl)aminocarbonyl)-Asp-(NMe)PheNH2] (Ms-WK([CO-NH(2-Me-phenyl)])D[NMeF]-NH2) |  |  | 
 |  | Cc1ccccc1NC(=O)NCCCC[C@H](NC(=O)[C@H](Cc1c[nH]c2ccccc12)NC(=O)CCc1ccc(O)c(I)c1)C(=O)N[C@@H](CC(=O)O)C(=O)N(C)[C@@H](Cc1ccccc1)C(N)=O [Example 93, (3-(4-Hydroxy-3-iodophenyl)propionyl)-Trp-Lys(ε-N-(2-methylphenyl)aminocarbonyl)-Asp-(NMe)PheNH2] (X5-WK([CO-NH(2-Me-phenyl)])D[NMeF]-NH2) |  |  | pIC50 (Type-B CCK receptor): 5.38; pIC50 (Type-A CCK receptor): 8.34
 |  | Cc1ccccc1NC(=O)NCCCC[C@H](NC(=O)C(C)(N)Cc1c[nH]c2ccccc12)C(=O)N[C@@H](CC(=O)O)C(=O)N(C)[C@@H](Cc1ccccc1)C(N)=O (single isomer, unassigned; isomer a) [Example 98, (α-Methyl)Trp-Lys(ε-N-(2-methylphenyl)aminocarbonyl)-Asp-(NMe)PheNH2 (Isomer A)] | 3200 nM | 4.9 nM | 
 |  | Cc1ccccc1NC(=O)NCCCC[C@H](NC(=O)C(C)(N)Cc1c[nH]c2ccccc12)C(=O)N[C@@H](CC(=O)O)C(=O)N(C)[C@@H](Cc1ccccc1)C(N)=O (single isomer, unassigned; isomer b) [Example 99, (α-Methyl)Trp-Lys(ε-N-(2-methylphenyl)aminocarbonyl)-Asp-(NMe)PheNH2 (Isomer B)] | > 10000 nM | 67 nM | 
5300 nM | 200 nM | CC(C)(C)OC(=O)N[C@@H](Cc1c[nH]c2ccccc12)C(=O)N[C@@H](CCCCNC(=O)C=Cc1ccc(C(F)(F)F)cc1)C(=O)N[C@@H](CC(=O)O)C(=O)N[C@@H](Cc1ccccc1)C(N)=O [Example 8, t-BOC-Trp-Lys(ε-N-(4-trifluoromethylcinnamoyl))-Asp-PheNH2] (Boc-WK(X12)DF-NH2) |  |  | 
 |  | COC(=O)N[C@@H](Cc1c[nH]c2ccccc12)C(=O)N[C@@H](CCCCNC(=O)Nc1ccccc1C)C(=O)N(C)[C@@H](CC(=O)O)C(=O)N[C@@H](Cc1ccccc1)C(N)=O [Example 81, Methoxycarbonyl-Trp-Lys(ε-N-(2-methylphenyl)aminocarbonyl)-(NMe)Asp-PheNH2] (Moc-WK([CO-NH(2-Me-phenyl)])[NMeD]F-NH2) | > 10000 nM | 2.1 nM | 
 |  | CN[C@@H](Cc1c[nH]c2ccccc12)C(=O)N[C@@H](CCCCNC(=O)Nc1ccccc1C)C(=O)N[C@@H](CC(=O)O)C(=O)N(C)[C@@H](Cc1ccccc1)C(N)=O [Example 101, (NMe)Trp-Lys(ε-N-(2-methylphenyl)aminocarbonyl)-Asp-(NMe)PheNH2] (H-[NMeW]K([CO-NH(2-Me-phenyl)])D[NMeF]-NH2) | 12000 nM | 9.3 nM | 
